Values of other authors, collected in patent US5674533A, “Pharmaceutical composition for the controlled release of moguisteine in a liquid suspension” (Recordati, S.A., Chemical And Pharmaceutical Company, priority 1994, dated 1997).

Legend:
[1] = for antitussive activity of enantiomers: R(+) vs S(-)
[2] = in humans
[3] = system: opioid receptors
[4] = system: rapidly adapting irritant receptors (RARs); details: peripheral site of action
[5] = in vivo
[6] = not given; remark: listed apart in the source

Structure (SMILES): CCOC(=O)CC(=O)N1CCSC1COc1ccccc1OC (single isomer, unassigned) [S(-) enantiomer]
- antitussive activity of enantiomers [1]: equivalent antitussive activity

Structure (SMILES): CCOC(=O)CC(=O)N1CCSC1COc1ccccc1OC (racemic) [moguisteine, (R,S)-2-[(2-methoxyphenoxy)methyl-3-ethoxycarbonyl-1-acetyl]-1,3-thiazolidine]
- half-life after administration [2]: less than one hour
- antitussive potency relative to codeine, dextromethorphan and zipripol ([1]; in vivo): as potent as codeine, dextromethorphan and zipripol
- antitussive potency relative to (D,L)-dropropizine ([1]; vs (D,L)-dropropizine): 3-4 times more potent
- action via opioid receptors [3]: does not act via opioid receptors
- interaction with RARs [4]: interacts with the so-called "rapidly adapting irritant receptors" (RARs)
- addiction [5]: causes no addiction
- tolerability in high doses relative to codeine or dextromethorphan [5]: better tolerated in high doses than codeine or dextromethorphan
- solubility in aqueous fluids: relatively insoluble in aqueous fluids

Structure (SMILES): COc1ccccc1OCC1SCCN1C(=O)CC(=O)O (racemic) [active metabolite, (R,S)-2-[(methoxyphenoxy)methyl]-3-carboxyacetyl]-1,3 thiazolidine acid]
- presence in biological fluids in measurable quantities ([6]; after oral or intravenous administration of moguisteine): only its active metabolite
- rate of absorption relative to moguisteine ([6]; oral): five times slower than moguisteine

Structure (SMILES): CCOC(=O)CC(=O)N1CCSC1COc1ccccc1OC (single isomer, unassigned) [R(+) enantiomer]
- antitussive activity of enantiomers [1]: equivalent antitussive activity

Structure (SMILES): COc1ccc2c3c1O[C@H]1[C@@H](O)C=C[C@H]4[C@@H](C2)N(C)CC[C@@]341 [Codeine]
- addiction [5]: potentially causing addiction
